Test systems include SF-295; EKVX; UACC-62; HCT-116; HOP-92; NCI-H226; MDA-MB-231; SN12C; NCI-H460; DU-145; UO-31; OVCAR-5; M14; 786-0; HT-29; HCC 2998; SK-OV-3.
Assay in all cases: DTP human tumour cell line panel, 48 h

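1) Cells in 96-well plates. 2) Compound, 48 h, 5 concentrations. 3) Linear interpolation between surrounding doses. 4) Unreached endpoint = highest concentration. GI50: concentration for 50% inhibition of growth.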 The source made the active and inactive calls. Cut-off read from the data, not from the text of the source: active = GI50 up to about 1.1 µM and inactive = higher.

Consider 14 compounds from ChEMBL document CHEMBL1201862, “PubChem BioAssay data set” (2004).

Usually GI50 stands for the concentration giving 50% growth inhibition. Consider `COC(=O)CCCC(=O)O`, for which the GI50 in the assay on SF-295, with EKVX, in the assay with UACC-62, in the assay on HCT-116, in the assay with HOP-92 and in the assay with NCI-H226 was > 100 µM (inactive) in each case. For the same compound, the GI50 in the assay on MDA-MB-231, with SN12C, with NCI-H460, with DU-145, in the assay with UO-31 and in the assay on OVCAR-5 was > 100 µM (inactive) throughout. In addition, the GI50 in the assay on M14, in the assay on 786-0 and in the assay with HT-29 was > 100 µM (inactive) each time.
As to `O=C(O)C1CC2(C1)CC(C(=O)O)C2` (stereo not given), the GI50 with SF-295, in the assay on EKVX, with UACC-62, in the assay on HCT-116, with MDA-MB-231 and in the assay on SN12C was > 100 µM (inactive) in each case. Also, the GI50 in the assay with NCI-H460, in the assay on DU-145, in the assay with UO-31, in the assay on OVCAR-5, in the assay with HCC 2998 and in the assay on SK-OV-3 was > 100 µM (inactive) in each case. The GI50 in the assay on M14, in the assay on 786-0 and in the assay with HT-29 was > 100 µM (inactive) in each case.
Regarding `CC(C)=NNc1snnc1C(N)=O`, the GI50 in the assay on SF-295, in the assay on EKVX, in the assay with UACC-62, in the assay on HCT-116, in the assay with NCI-H226 and in the assay on MDA-MB-231 was > 100 µM (inactive) each time. Moreover, the GI50 with SN12C, in the assay with DU-145, with UO-31, with OVCAR-5, with HCC 2998 and with SK-OV-3 was > 100 µM (inactive) each time. Moreover, the GI50 in the assay with M14, in the assay on 786-0 and in the assay with HT-29 was > 100 µM (inactive) in each case.
With `O=c1cc(NNc2ccc(F)cc2)[nH]c(=O)[nH]1`, the GI50 was > 100 µM (inactive) in the assay with SF-295; 18.3 µM (inactive) in the assay on EKVX; 15.1 µM (inactive) in the assay with UACC-62; 17.9 µM (inactive) in the assay with HCT-116; 24.6 µM (inactive) in the assay on NCI-H226; 17.1 µM (inactive) with MDA-MB-231. The GI50 in the assay on SN12C was 18.2 µM (inactive); in the assay on NCI-H460, 19.4 µM (inactive); in the assay on DU-145, > 100 µM (inactive); in the assay on UO-31, 17.9 µM (inactive); in the assay with OVCAR-5, 19.2 µM (inactive); in the assay with HCC 2998, 23.4 µM (inactive). The GI50 in the assay on SK-OV-3 is 39.1 µM (inactive); with M14, 8.85 µM (inactive); in the assay with 786-0, 12.5 µM (inactive); with HT-29, 16.9 µM (inactive).
With `O=c1[nH]nc(-c2ccccc2)c2[nH]c3c4ccccc4ccc3c12`, the GI50 was 0.461 µM (active) with SF-295; 3.44 µM (inactive) with EKVX; 1.2 µM (inactive) in the assay on UACC-62; 0.942 µM (active) with HCT-116; 20.3 µM (inactive) in the assay on HOP-92; 4.14 µM (inactive) with NCI-H226. The GI50 in the assay on SN12C was 3.87 µM (inactive); in the assay with NCI-H460, 0.56 µM (active); in the assay with HCC 2998, 0.948 µM (active); with SK-OV-3, 2.61 µM (inactive); in the assay on M14 it was 2.66 µM (inactive); with 786-0 it was 2.1 µM (inactive). The GI50 in the assay on HT-29 is 0.459 µM (active).
With `CN1C2CCC1CC(=CCOC(c1ccc(F)cc1)c1ccc(F)cc1)C2`, the GI50 in the assay with SF-295 was 16.9 µM (inactive); in the assay on EKVX it was 18.8 µM (inactive); in the assay on UACC-62, 15.1 µM (inactive); with HCT-116, 11.8 µM (inactive); in the assay on NCI-H226, 20.3 µM (inactive); in the assay with MDA-MB-231, 17.9 µM (inactive). Also, the GI50 in the assay on SN12C was 17.3 µM (inactive); in the assay with NCI-H460 it was 17.2 µM (inactive); with DU-145 it was 16.9 µM (inactive); in the assay on UO-31 it was 9.91 µM (inactive); with OVCAR-5 it was 17.4 µM (inactive); with HCC 2998 it was 4 µM (inactive). The GI50 with SK-OV-3 was 17 µM (inactive); in the assay on M14, 16.4 µM (inactive); with 786-0, 14 µM (inactive); in the assay on HT-29 it was 5.21 µM (inactive).
Turning to `CO[P@]1(=O)O[C@@H](c2ccccc2)[C@H](O)[C@@]1(O)c1ccccc1`, the GI50 in the assay on SF-295, in the assay on EKVX, in the assay with UACC-62, with HCT-116, in the assay with HOP-92 and in the assay with NCI-H226 was > 100 µM (inactive) each time. The GI50 in the assay on MDA-MB-231, in the assay with SN12C, with NCI-H460, in the assay on DU-145, with UO-31 and with OVCAR-5 was > 100 µM (inactive) in each case. Further, the GI50 in the assay with SK-OV-3, with M14, in the assay with 786-0 and in the assay with HT-29 was > 100 µM (inactive) throughout.
Take `CCc1n[nH]c(=O)n1/N=C/c1ccc(/C=N/n2c(CC)n[nH]c2=O)cc1`: the GI50 with SF-295, in the assay with EKVX, with UACC-62, in the assay on HCT-116, with NCI-H226 and in the assay on MDA-MB-231 was > 100 µM (inactive) in each case. The GI50 with SN12C, with NCI-H460, in the assay on DU-145, in the assay on UO-31, in the assay on OVCAR-5 and in the assay on M14 was > 100 µM (inactive) each time. Moreover, the GI50 in the assay on 786-0 and in the assay with HT-29 was > 100 µM (inactive) throughout.
In the case of `O=C1C=Cc2c1csc2Br`, the GI50 was > 100 µM (inactive) with SF-295; 87.5 µM (inactive) in the assay on EKVX; 35.3 µM (inactive) in the assay on UACC-62; 43.3 µM (inactive) with HCT-116; 91.8 µM (inactive) in the assay with MDA-MB-231; > 100 µM (inactive) in the assay on SN12C. The GI50 in the assay with NCI-H460 is > 100 µM (inactive); with DU-145 it was > 100 µM (inactive); in the assay on UO-31, 24.2 µM (inactive); in the assay on OVCAR-5 it was > 100 µM (inactive); in the assay with SK-OV-3 it was > 100 µM (inactive); in the assay with M14, 19.1 µM (inactive). The GI50 was 25.8 µM (inactive) with 786-0 and 96.8 µM (inactive) with HT-29.
Take `CN1CCC2(CC1)SSC1(CCN(C)CC1)S2`: the GI50 is > 100 µM (inactive) in the assay with SF-295; 46.7 µM (inactive) in the assay on UACC-62; > 100 µM (inactive) in the assay with HCT-116; > 100 µM (inactive) with HOP-92; > 100 µM (inactive) in the assay with MDA-MB-231; > 100 µM (inactive) with SN12C. Also, the GI50 in the assay on NCI-H460, in the assay with UO-31, in the assay on OVCAR-5, with SK-OV-3, in the assay with M14 and with 786-0 was > 100 µM (inactive) in each case. The GI50 in the assay with HT-29 is > 100 µM (inactive).
As for `CCOC(=O)NC(C(=O)OCC)C(F)(F)F` (stereo not given), the GI50 in the assay with SF-295 was > 100 µM (inactive); in the assay with EKVX, > 100 µM (inactive); in the assay with UACC-62, > 10 µM (inactive); in the assay on HCT-116, > 100 µM (inactive); in the assay with HOP-92 it was 71.4 µM (inactive); in the assay with MDA-MB-231, > 100 µM (inactive). In addition, the GI50 in the assay with SN12C, in the assay with NCI-H460, with UO-31, with OVCAR-5, with HCC 2998 and in the assay with SK-OV-3 was > 100 µM (inactive) each time. Moreover, the GI50 with M14, in the assay with 786-0 and in the assay on HT-29 was > 100 µM (inactive) throughout.
Turning to `N#CC(C#N)/N=N/c1ccc(-c2nc3ccccc3[nH]2)cc1`, the GI50 is > 100 µM (inactive) with SF-295; 50.7 µM (inactive) in the assay with EKVX; 15.4 µM (inactive) with HCT-116; 22.5 µM (inactive) with HOP-92; 50.1 µM (inactive) in the assay with NCI-H226; 13.7 µM (inactive) in the assay with MDA-MB-231. Also, the GI50 in the assay on SN12C was > 100 µM (inactive); in the assay on NCI-H460, 94.6 µM (inactive); in the assay with DU-145, 16.4 µM (inactive); with UO-31 it was 14 µM (inactive); in the assay with OVCAR-5 it was > 100 µM (inactive); with SK-OV-3, > 100 µM (inactive). The values for the GI50 in the assay with M14, in the assay with 786-0 and with HT-29 were 20.8 µM (inactive), 21.2 µM (inactive) and 28.7 µM (inactive), respectively.
For the compound `COI1NC(=O)c2ccccc21`, the GI50 with SF-295, in the assay on EKVX, in the assay with UACC-62, with HCT-116, in the assay on HOP-92 and with NCI-H226 was > 100 µM (inactive) each time. For the same compound, the GI50 in the assay with MDA-MB-231, in the assay with SN12C, with DU-145, in the assay on UO-31, in the assay on OVCAR-5 and with SK-OV-3 was > 100 µM (inactive) each time. In addition, the GI50 with M14, in the assay with 786-0 and with HT-29 was > 100 µM (inactive) each time.
In the case of `CC1CC/C(=C\c2ccc(Cl)cc2)C2OC(N)=C(C#N)C(c3ccc(Cl)cc3)=C12` (stereo not given), the GI50 with EKVX was 5.55 µM (inactive); with UACC-62, 16.2 µM (inactive); in the assay with HCT-116 it was 12.6 µM (inactive); in the assay on NCI-H226, 11 µM (inactive); with MDA-MB-231 it was 10.4 µM (inactive); in the assay with SN12C, 13.7 µM (inactive). In addition, the GI50 is 17 µM (inactive) in the assay on DU-145; 9.31 µM (inactive) with UO-31; 15.9 µM (inactive) with OVCAR-5; 18.2 µM (inactive) with SK-OV-3; 16.2 µM (inactive) in the assay with M14; 13.6 µM (inactive) with 786-0. Also, in the assay with HT-29, the GI50 is 6.92 µM (inactive).
